# Experimental data reported in patent US20130072506A1, “6,8-DISUBSTITUTED PURINE COMPOSITIONS” (priority 2011, published 2013).
# Tests used:
# [1] = tested on: human skin fibroblast line ASF-2; experiment: Cell survival and toxicity (MTT assay); type: cell-based
# Protocol: (§1) All cell culture experiments were performed on early and mid passage cultures (about 20 to 40% lifespan completed) of normal human skin fibroblast line, designated ASF-2. In order to check the effects of test compounds on senescent cells, late passage cells with more than 90% lifespan completed were used. ASF-2 cell line was established from a mammary skin biopsy obtained from a young, non-smoking and healthy […] at the time of breast reduction operation. Normal culture conditions of medium (DMEM) containing antibiotics, 10% foetal calf serum, and incubation at 37° C. with 95% humidity were used. The effects of the test compounds were determined using the following procedures.
# Cell survival, toxicity, and JC-1 staining. Cell survival after exposure to various doses of the test compounds was measured with the 3-(4,5 dimethylthiazol-2-yl)-2,5-diphenyltetrazolium bromide (MTT) assay. About 5,000 cells were seeded per well in a 96-well plate 24 h before the experiment. Cells were then treated with various doses of the compound to be tested. The wells were washed in Hank's and new medium was added. After three days, MTT (Sigma, M2128) was added at 0.5 mg/ml in medium. After 4 h, MTT was collected and then dissolved in isopropanol and HCl over a 12-16 h period. The absorbance at 595 nm was measured.
# [2] = tested on: cytokinin-dependent tobacco callus; experiment: Growth of cytokinin-dependent tobacco callus (plant cell division); type: cell-based, Nicotiana tabacum L. cv. Wisconsin 38; settings: at concentration with highest activity; activity of kinetin set at 100%
# Protocol: The effect on plant cell division. Cytokinin-dependent tobacco callus Nicotiana tabacum L. cv. Wisconsin 38 was maintained at 25° C. in darkness on modified MS medium, containing 4 μmol/l nicotinic acid, 2.4 μmol/l pyridoxine hydrochloride, 1.2 μmol/l thiamine, 26.6 μmol/l glycine, 1.37 μmol/l glutamine, 1.8 μmol/1 myo-inositol, 30 g/l of sucrose, 8 g/l of agar, 5.37 μmol/l NAA and 0.5 μmol/l BAP. Subcultivation was carried out every three weeks. Fourteen days before the bioassay, the callus tissue was transferred to the media without BAP. Biological activity was determined from the increase in fresh callus weight after four weeks of cultivation. Five replicates were prepared for each cytokinin concentration and the entire test was repeated twice. From the obtained data, the concentration with highest activity was selected for each compound tested. Relative activity at this concentration was calculated (see Table 4 below).
# The cytokinins to be tested were dissolved in dimethylsulfoxide (DMSO) and the solution brought up to 10^−3M with distilled water.
# [3] = tested on: senescent human skin fibroblasts; experiment: Effects on senescent human skin fibroblasts (morphology, cell number); type: cell-based
# Description: (§2) B) Cellular parameters: • (4) Cellular morphology: to evaluate cytoplasmic and nuclear stability; • (5) Cytoskeleton organization: to evaluate the stability of the cytoskeleton; • (6) Appearance of senescence-specific β-galactosidase: to rule out pro-aging effects; • (7) Lysosomal staining (Neutral red); • (8) JC-1 Staining of Mitochondria: for evaluation of mitochondrial function; • (9) Rejuvenation studies: for evaluation of reversion effect from aged phenotype to young phenotype; and
# as §1
# [4] = tested on: human skin fibroblast line ASF-2; experiment: Senescence-specific beta-galactosidase staining; type: cell-based
# Description: as §2, §1
# [5] = tested on: human skin fibroblast line ASF-2; experiment: Cell attachment of human skin fibroblasts; type: cell-based; settings: six hours of treatment, 40 to 500 μM
# Protocol: A) Growth characteristics: • (1) Cell attachment frequency: to rule out immediate toxicity; • (2) Cell survival: to rule out delayed toxicity; • (3) Growth rates: to determine cell division stimulatory/inhibitory potential;
# Experimental Procedures. A stock solution of 4 mM for 6-furfurylamino-8-aminopurine and 8 mM for other compounds were prepared by dissolving about […] per ml 1N HCl, followed by its appropriate dilution by the addition of Hank's buffer. The stock solution was filter sterilized, stored at 4° C., and was used for experiments by dilution it in the cell culture medium as required.
# as §1
# [6] = tested on: lysosomes of human skin fibroblasts; experiment: Lysosomal staining (Neutral Red); type: cell-based; settings: treated cells compared to the controls
# Protocol: as §1
# Lysosomal activity. Neutral Red is preferentially taken up into the lysosomes of the cell. Fibroblast cells are maintained in culture and exposed to test compounds over a range of concentrations. The cultures are visually examined after 72 hours, and the number of viable cells and/or the total cell protein content determined, after 72 hours exposure, by the Neutral Red Uptake method. Advantage of Neutral Red assay is that it detects only viable cells. Any material having a localized effect upon the lysosomes will, therefore, result in an artificially low (or possibly high) reflection of cell viability and cell number. […]
# SKH-1 hairless mice = experiment: Hairless mouse assay: epidermal bromodeoxyuridine (BrdU) staining; type: in vivo
# Description: This study determined the effect of topical compound formulations on epidermal cell proliferation using bromodeoxyuridine as an immunohistochemical marker of cell proliferation. Histological examination of the treated and control skin were used to determine cutaneous effects of the topical compounds. Topical tretinoin 0.05% (Renova™) was used as a therapeutic control.
# Experimental Design. 48 female SKH-1 hairless mice (5 weeks old, 20-25 grams, Charles River Laboratories, Wilmington, Mass.) are individually housed in filter-top cages, and acclimated for 5-7 days after delivery. The mice are divided into 8 treatment groups (n=6), including two different control groups (untreated control, vehicle control) and a therapeutic control (tretinoin 0.05% Renova™ cream). Cage cards are marked to indicate treatment groups 1-8. Water and mouse chow are provided ad libitum.
# Topical Treatments. Beginning on Treatment Day 1, test products are applied topically each morning (Monday through Friday) after erythema evaluations for 3 weeks. Using a positive displacement pipette, 20 mg of each agent is applied to a 2 cm×2 cm area of the center midline of the back. The material was spread across the treatment area with the pipette tip.
# Bromodeoxyuridine Injection. All animal groups are injected with bromodeoxyuridine (100 mg/kg) I.P. 4 hours after the final application. Animals are sacrificed by CO2 inhalation 3 hours later followed by cervical dislocation. The test sites are excised, and 6 mm punch biopsies are obtained from each treatment site, and from untreated controls. Biopsies are placed into labeled vials containing 4% neutral buffered formalin for paraffin embedding and anti-BrdU staining.
# Bromodeoxyuridine Immunohistochemical Staining. Paraffin sections are cut to a […] thickness and stained using the BrdU Immuno-histochemistry kit (X1545K from Exalpha Biologicals, Inc.) and a standard staining protocol. The slides are weakly counterstained in Mayer's hematoxylin and scored under a light microscope for the number of BrdU-positive cells per mm of epidermis for each section. The data are expressed as mean BrdU-positive cells/mm for each treatment group. Differences in BrdU labeling in the treatment groups are statistically analyzed using the Students t-test. Representative photographs are taken of the histological sections of the BrdU-positive staining cells.
smiles,measurement,setting,value
"Nc1nc2c(NCc3ccco3)ncnc2[nH]1 [Compound 82, 6-furfurylamino-8-aminopurine]",reduction in survival,"[1]; 100 μM, MTT",15%
same,cell survival,"[1]; 500 μM, MTT",reduction in cell survival
same,toxic effects (MTT),"[1]; young fibroblasts, until a dose of 100 μM",little toxic effects
same,Activity (%),[2],150.10%
same,number of surviving senescent cells,[3]; 7 to 14 days,maintains the number of surviving senescent cells
same,appearance of senescent cells (intracellular debris),"[3]; 40 and 80 μM, vs controls",less intracellular debris
same,morphology of senescent cells,[3]; after 14 days of treatment,looking relatively younger
same,number of prematurely senescent cells (beta-galactosidase staining),[4],did not show any increase
same,Percent of cells attached,[5],not affected to any significant extent
same,lysosomes (Neutral Red staining),[6],larger and more numerous
same,epidermal BrdU staining,SKH-1 hairless mice; after 3 weeks of topical treatment,more effective
same,Mean Nuclei Stained,"SKH-1 hairless mice; epidermal BrdU staining after 3 weeks of topical treatment, 0.1% (tretinoin 0.05%)",12.8 ± 13.3
